Test results: patent publication US9265761B2, “Compositions and methods for treating purpura” (ALLERGAN, INC., priority 2007, dated 2016)
Structures can show the parent of a compound that is named as a salt. Where two headings read alike, the source gives them in different places.

Legend:
purpura = assay: Resolution of pulsed-dye laser induced purpura, topical application after laser (Example 1); format: in vivo, human; settings: commercial solutions applied topically every 6-8 hours after pulsed-dye laser (585 nm), trunk of a volunteer, followed 1-13 days; oxymetazoline HCl 0.05%, naphazoline HCl 0.03%, tetrahydrozoline HCl 0.05%, phenylephrine HCl 1.0%, brimonidine tartrate 0.2%
Source text: The applied solution was allowed to air-dry without any dressing. […] The evaluated compounds were:
The sites were followed clinically and photographically 1, 3, 4, 6, 11 and 13 days after the creation of the purpura.

laser-induced purpura = assay: Prevention of laser-induced purpura, topical pretreatment before laser (Example 2); format: in vivo, human; settings: topical application 3 hours and 1 hour prior to laser; oxymetazoline HCl 0.05%, naphazoline HCl 0.03%, tetrahydrozoline HCl 0.05%, phenylephrine HCl 1.0%, brimonidine tartrate 0.2%
Source text: In order to evaluate the effect of topically applied α1 and α2 adrenergic agonists on the prevention of laser-induced purpura on normal non-actinically damaged skin, seven sites on the trunk of a volunteer were marked and treated with the topical application of a commercially available α1 and/or α2 agonist preparation. Six (of the seven) marked sites were pretreated with the topical application of at least one of the testing preparations. The preparations were applied to the skin and gently rubbed on the skin over and immediately surrounding the laser treatment sites 3 hours prior to and 1 hour prior to the delivery of the laser energy. The applied solution was allowed to air-dry without any dressing. […] After the delivery of the laser energy, each spot received only topical petrolatum jelly 3-4 times/day and no additional application of any testing compound. The sites were followed clinically and photographically 1, 3, 4, 6, 11 and 13 days after the creation of the purpura. The evaluated compounds were:
Site 8: Oxymetazoline hydrochloride (0.05%): A solution of oxymetazoline hydrochloride 0.05% (Afrin® Original 12 Hour Nasal Spray (Schering-Plough Healthcare Products) containing: oxymetazoline hydrochloride 0.05%, benzalkonium chloride solution, edetate disodium, polyethylene glycol, povidone, propylene glycol, purified water, sodium phosphate dibasic, sodium phosphate monobasic.
Site 9: Naphazoline hydrochloride (0.03%): A solution of naphazoline hydrochloride 0.03% (Clear Eyes® Maximum Redness Relief (Prestige Brands Inc.) containing: naphazoline hydrochloride 0.03%, glycerin 0.5%, benzalkonium chloride, boric acid, edetate disodium, purified water, sodium borate).
Site 10: Tetrahydrozoline hydrochloride (0.05%): A solution of tetrahydrozoline hydrochloride 0.05% (Visine® Original (Pfizer Consumer Healthcare) containing: tetrahydrozoline hydrochloride 0.05%, benzalkonium chloride, boric acid, edetate disodium, purified water, sodium borate, sodium chloride).
Site 11: Phenylephrine hydrochloride (1.0%): A solution of phenylephrine hydrochloride 1.0% (Neo-Synephrine® Extra Strength Spray (Bayer HealthCare) containing: phenylephrine hydrochloride 1.0%, anhydrous citric acid, benzalkonium chloride, sodium chloride, sodium citrate, water).
Site 14: No treatment after laser light delivered. (“Control”)

solar purpura [1] = assay: Treatment and prevention of solar purpura with topical α1 adrenergic agonist (Example 4); format: in vivo, human
Protocol: Subject 1 is a person with a long-standing history of solar purpura on their forearms. The test area comprised the left dorsal (extensor) forearm from the wrist to the elbow. Pretreatment photos were taken and baseline measurements of the solar purpura on the left extensor forearm from the wrist to the elbow were measured. […] The total area of purpura was 8.94 cm^2. (SEE TABLE 2)
(§1) A solution of oxymetazoline hydrochloride 0.05% (Afrin® Original 12 Hour Nasal Spray (Schering-Plough Healthcare Products) containing: oxymetazoline hydrochloride 0.05%, benzalkonium chloride solution, edetate disodium, polyethylene glycol, povidone, propylene glycol, purified water, sodium phosphate dibasic, sodium phosphate monobasic (0.005%)) was applied by the patient to the left dorsal forearm twice daily (morning and evening). […] The sites were followed clinically and photographically.
Subject 2 is a person with a long history of cosmetically disturbing solar purpura on their forearms who wanted to improve the appearance solar (decrease the purpura). The test area comprised the left dorsal (extensor) forearm from the wrist to the elbow. Pretreatment photos were taken and baseline measurements of the solar purpura on the left extensor forearm from the wrist to the elbow were measured. […] The total area of purpura was 1.72 cm^2. (SEE TABLE 3)
as §1, with “once” for “twice”, “(morning).” for “(morning and evening).”

solar purpura [2] = settings: for Effect: decrease of purpura area compared to mean baseline / Purpura Area / Effect: increase of purpura area compared to mean baseline: 0.2% solution twice daily; for Effect: decrease of purpura area compared to mean baseline / Purpura Area: right dorsal forearm; for Purpura Area: mean baseline 3.67 cm^2; for Effect: increase of purpura area compared to mean baseline: day 24, increase in purpura noted after gardening
Source text: The use of a topically applied α2 adrenergic agonist for the treatment and prevention of solar purpura (“actinic purpura”, “Bateman's purpura”): In order to evaluate the effect of topically applied α1 and α2 adrenergic agonists on the prevention and treatment of solar purpura, a volunteer with a diagnosis of solar purpura of the forearms treated with a topically applied α2 adrenergic agonist containing solution. The test area comprised the right extensor forearm from the wrist to the elbow. Photos were taken and baseline scores for the solar purpura on their right dorsal forearm from the wrist to the elbow were measured 6 times over a 91 day period before initiating treatment. Two measurements were taken to approximate the area of each purpuric patch.
The solution was applied with a cotton ball to the skin of the entire right extensor forearm from the wrist to the elbow. The sites were followed clinically and photographically.

[3] = Subject 1, 0.05% solution twice daily
[4] = Subject 2, 0.05% solution once daily

c1ccc2c(CC3=NCCN3)cccc2c1 [naphazoline hydrochloride]
resolution of the purpura compared with non-treated control site (purpura): most pronounced
how pronounced the effect of pretreatment was (smaller purpuric macule/patch, shortened resolution) (laser-induced purpura): more pronounced

Cc1cc(C(C)(C)C)c(O)c(C)c1CC1=NCCN1 [oxymetazoline hydrochloride]
resolution of the purpura compared with non-treated control site (purpura): most pronounced
Purpura Area (solar purpura [1]; Subject 1, day 17, 0.05% solution twice daily, left extensor forearm, baseline 8.94 cm^2): 9.95 cm^2
Effect: increase of purpura area compared to baseline (solar purpura [1]; Subject 1, day 17, 0.05% solution twice daily, hydrochloride): ↑ 11% from Baseline
Effect: increase of purpura area compared to baseline (solar purpura [1]; Subject 1, day 17, 0.05% solution twice daily, listed as oxymetazoline, hydrochloride): 11%
Purpura Area (solar purpura [1]; Subject 1, day 29, 0.05% solution twice daily, baseline 8.94 cm^2): 5.73 cm^2
Effect: decrease of purpura area compared to baseline (solar purpura [1]; Subject 1, day 29, 0.05% solution twice daily, hydrochloride): ↓ 36% from Baseline
Effect: decrease of purpura area compared to baseline (solar purpura [1]; Subject 1, day 29, 0.05% solution twice daily, listed as oxymetazoline, hydrochloride): 36%
Purpura Area (solar purpura [1]; Subject 1, day 44, 0.05% solution twice daily, baseline 8.94 cm^2): 5.6 cm^2
Effect: decrease of purpura area compared to baseline (solar purpura [1]; Subject 1, day 44, 0.05% solution twice daily, hydrochloride): ↓ 37% from Baseline
Effect: decrease of purpura area compared to baseline (solar purpura [1]; Subject 1, day 44, 0.05% solution twice daily, listed as oxymetazoline, hydrochloride): 37%
Purpura Area (solar purpura [1]; Subject 1, day 81, 0.05% solution twice daily, baseline 8.94 cm^2): 1.44 cm^2
Effect: decrease of purpura area compared to baseline (solar purpura [1]; Subject 1, day 81, 0.05% solution twice daily, hydrochloride): ↓ 84% from Baseline
Effect: decrease of purpura area compared to baseline (solar purpura [1]; Subject 1, day 81, 0.05% solution twice daily, listed as oxymetazoline, hydrochloride): 84%
Purpura Area (solar purpura [1]; Subject 1, day 91 (medication discontinued day 91), 0.05% solution twice daily, baseline 8.94 cm^2): 0.42 cm^2
Effect: decrease of purpura area compared to baseline (solar purpura [1]; Subject 1, day 91, 0.05% solution twice daily, hydrochloride): ↓ 95% from Baseline
Effect: decrease of purpura area compared to baseline (solar purpura [1]; Subject 1, day 91, 0.05% solution twice daily, listed as oxymetazoline, hydrochloride): 95%
Purpura Area (solar purpura [1]; Subject 1, day 98, 7 days off medication, day 91 value 0.42 cm^2): 1.96 cm^2
Effect: increase of purpura area (table: from Baseline; text: from day 91 measurement) (solar purpura [1]; Subject 1, day 98, 7 days off medication, hydrochloride): ↑ 366% from Baseline
Effect: increase of purpura area (table: from Baseline; text: from day 91 measurement) (solar purpura [1]; Subject 1, day 98, 7 days off medication, listed as oxymetazoline, hydrochloride): 366%
Purpura Area (solar purpura [1]; Subject 1, day 112, 14 days off medication, day 91 value 0.42 cm^2): 0.46 cm^2
Effect: increase of purpura area (table: from Baseline; text: from day 91 measurement) (solar purpura [1]; Subject 1, day 112, 14 days off medication, hydrochloride): ↑ 10% from Baseline
Effect: increase of purpura area (table: from Baseline; text: from day 91 measurement) (solar purpura [1]; Subject 1, day 112, 14 days off medication, listed as oxymetazoline, hydrochloride): 10%
Purpura Area (solar purpura [1]; Subject 1, day 122, 24 days off medication, day 91 value 0.42 cm^2): 2.22 cm^2
Effect: increase of purpura area (table: from Baseline; text: from day 91 measurement) (solar purpura [1]; Subject 1, day 122, 24 days off medication, hydrochloride): ↑ 428% from Baseline
Effect: increase of purpura area (table: from Baseline; text: from day 91 measurement) (solar purpura [1]; Subject 1, day 122, 24 days off medication, listed as oxymetazoline, hydrochloride): 428%
patient's impression: new purpuric macules/patches while using the medication (solar purpura [1]; [3]): fewer new purpuric macules/patches
patient's impression: resolution of purpura that occurred (solar purpura [1]; [3]): resolve more quickly
side effects, local or systemic, during the treatment (solar purpura [1]; Subject 1, 0.05% solution twice daily, 91 days): no side effects, either local or systemic
Purpura Area (solar purpura [1]; Subject 2, day 7, 0.05% solution once daily, left extensor forearm, baseline 1.72 cm^2, hydrochloride): 0.00 cm^2
Purpura Area (solar purpura [1]; Subject 2, day 7, 0.05% solution once daily, left extensor forearm, baseline 1.72 cm^2, listed as oxymetazoline, hydrochloride): 0 cm^2
Effect: decrease of purpura area compared to baseline (solar purpura [1]; Subject 2, day 7, 0.05% solution once daily, hydrochloride): ↓ 100% from Baseline
Effect: decrease of purpura area compared to baseline (solar purpura [1]; Subject 2, day 7, 0.05% solution once daily, listed as oxymetazoline, hydrochloride): 100%
Purpura Area (solar purpura [1]; Subject 2, day 31, 0.05% solution once daily, baseline 1.72 cm^2, hydrochloride): 0.00 cm^2
Purpura Area (solar purpura [1]; Subject 2, day 31, 0.05% solution once daily, baseline 1.72 cm^2, listed as oxymetazoline, hydrochloride): 0 cm^2
Effect: decrease of purpura area compared to baseline (solar purpura [1]; Subject 2, day 31, 0.05% solution once daily, hydrochloride): ↓ 100% from Baseline
Effect: decrease of purpura area compared to baseline (solar purpura [1]; Subject 2, day 31, 0.05% solution once daily, listed as oxymetazoline, hydrochloride): 100%
Purpura Area (solar purpura [1]; Subject 2, day 36, 0.05% solution once daily, baseline 1.72 cm^2): 0.36 cm^2
patient's impression: new purpuric patches while using the medication (solar purpura [1]; [4]): fewer new purpuric patches
patient's impression: resolution of purpura that occurred (solar purpura [1]; [4]): resolve more quickly
side effects, local or systemic, during the treatment (solar purpura [1]; [4]): no side effects, either local or systemic
overall outcome of the trials on solar purpura (solar purpura [1]; topically applied once or twice daily, two subjects): dramatically reduces the size and appearance of purpuric macules/patches and may eliminate them
how pronounced the effect of pretreatment was (smaller purpuric macule/patch, shortened resolution) (laser-induced purpura): more pronounced

CNC[C@H](O)c1cccc(O)c1 [phenylephrine hydrochloride]
resolution of the purpura compared with non-treated control site (purpura): most pronounced
how pronounced the effect of pretreatment was (smaller purpuric macule/patch, shortened resolution) (laser-induced purpura): more pronounced

c1ccc2c(c1)CCCC2C1=NCCN1 (centres unmarked) [tetrahydrozoline hydrochloride]
how pronounced the effect of pretreatment was (smaller purpuric macule/patch, shortened resolution) (laser-induced purpura): more pronounced

brimonidine tartrate
overall outcome of the trial on solar purpura (solar purpura [2]; 0.2% topically applied twice daily): reduces the size and appearance of purpuric macules/patches
Effect: decrease of purpura area compared to mean baseline (solar purpura [2]; day 7): ↓ 60% from Baseline
Purpura Area (solar purpura [2]; day 7, person): 1.48 cm^2
Effect: decrease of purpura area compared to mean baseline (solar purpura [2]; day 7, listed as brimonidine): 60%
Effect: decrease of purpura area compared to mean baseline (solar purpura [2]; day 14): ↓ 90% from Baseline
Effect: decrease of purpura area compared to mean baseline (solar purpura [2]; day 14, listed as brimonidine): 90%
Purpura Area (solar purpura [2]; day 14): 0.35 cm^2
Purpura Area (solar purpura [2]; day 24, after gardening): 5.72 cm^2
Effect: increase of purpura area compared to mean baseline (solar purpura [2]): ↑ 34% from Baseline
Effect: increase of purpura area compared to mean baseline (solar purpura [2]; listed as brimonidine): 34%
Purpura Area (solar purpura [2]; day 36): 2.52 cm^2
how pronounced the effect of pretreatment was (smaller purpuric macule/patch, shortened resolution) (laser-induced purpura): less pronounced
